According to a melting point compilation (Tetko et al.; mined from patent text by program, amines drawn as free bases though some values may be those of a salt):

First: CCc1nc2ncnn2c(N)c1CCc1ccccc1
Second: Nc1nc2ccccc2c2c1ncn2CCOCCCc1ccccn1
The melting point of the first is higher: 210 to 211 °C for the first, 138 to 140 °C for the second.

First: Cc1ccc2c(c1)c(O)c(C(=O)NC1CCCCC1)c(=O)n2Cc1ccc(F)cc1
Second: CC(=O)Nc1ccc(OCC(=O)NC2CCN(Cc3ccc(Cl)c(Cl)c3)CC2)cc1
The melting point of the first is lower: 156 °C for the first, 177 to 178 °C for the second.

First: COc1cc(COc2cccc3c2CN(C2CCC(=O)NC2=O)C3=O)ccc1OCCN1CCCC1 (stereo not drawn)
Second: COc1ccccc1N1CCN(CCCn2c(=O)[nH]c3cscc3c2=O)CC1
The melting point of the first is lower: 160 to 162 °C for the first, 187 to 188 °C for the second.

Compared with O=C1CC(c2ccccc2)NC(=O)C1C(=O)c1ccccc1[N+](=O)[O-] (stereo not drawn), CSC1(C)C(=O)Nc2c(C(=O)c3ccccc3)cccc21 (stereo not drawn) is lower in melting point: 146 to 150 °C for the first, 135 to 137 °C for the second.

First: NCCCOc1ccc2cc(CC(=O)O)c(=O)n(Cc3ccccc3)c2c1
Second: NC(=O)c1cccc(OCc2ccccc2)c1
The melting point of the first is lower: 126 to 128 °C for the first, 136 to 140 °C for the second.

Compared with CC(C(=O)O)c1cc(Cl)c([N+](=O)[O-])cc1Cl (stereo not drawn), Nc1cc(N2CCC(O)CC2)c(F)cc1[N+](=O)[O-] is higher in melting point: 143 °C for the first, 238 to 239 °C for the second.

First: CCCCCCCCCCCCCCCCOc1cccc(O)c1
Second: CCCCCCCCNC(=O)N1CCC(c2cc(Cc3ccc(OC)cc3)nc(N)n2)CC1
The melting point of the first is lower: 58 to 59 °C for the first, 104 to 106 °C for the second.

First: CCCc1c(OC(C(=O)OCC)c2ccc(Cl)c(Cl)c2)ccc(C(C)=O)c1O (stereo not drawn)
Second: CCOC(=O)c1c(Oc2ccc(Cl)cc2[N+](=O)[O-])c2ccccc2n1C
The melting point of the first is lower: 77 to 79 °C for the first, 133 to 134 °C for the second.

First: CN1CCN(Cc2nc3cccnc3n2CCO)CC1
Second: CCN1CCCC(NC(=O)Cn2c(-c3ccc(Br)cc3)nc3cccnc32)C1 (stereo not drawn)
The melting point of the first is lower: 89.5 °C for the first, 190 to 192 °C for the second.

O=C(c1ccccc1)N1CCc2[nH]c3ccc(-c4ccccc4)cc3c2CC1 and CCOC(=O)NCC(O)c1cccc2c1CCN2C(=O)c1ccccc1 (stereo not drawn) cannot be ordered by melting point: 140 to 145 °C for the first, 143 °C for the second.

First: CCn1c(-c2ccc(-n3ccnc3)cc2)cnc1[C@H](Cc1ccccn1)N(C=O)c1cc2cc(C(F)(F)F)ccc2o1
Second: CN1C(=O)[C@H](NC(=O)Cc2ccc(C(F)(F)F)cc2)N=C(c2ccccc2)c2ccccc21
The melting point of the first is lower: 85 to 89 °C for the first, 224 to 226 °C for the second.

First: CCOC(=O)C1=Cc2cccc(C(N)=O)c2OCC1
Second: CCOC(=O)C(=O)Nc1cccc(C)n1
The melting point of the first is higher: 120 to 125 °C for the first, 61 to 63 °C for the second.

First: CCCCn1nc(C(F)F)nc1Cc1ccc(-c2ccccc2-c2nnn[nH]2)nc1
Second: CCCCc1ncc(C=O)n1Cc1ccc(C(=O)O)c2ccccc12
The melting point of the first is lower: 172 to 174 °C for the first, 182 °C for the second.

First: NC(=O)c1c(F)cccc1C(F)(F)F
Second: CSc1ccc(C(=O)C(=C(N)C(F)(F)F)c2ccc(F)cc2)cc1
The melting point of the first is higher: 143 to 144 °C for the first, 122 to 124 °C for the second.

Compared with CCOc1ccc(-c2cc(C(F)(F)F)n3cnc(-c4ccncc4)c3n2)cc1C(F)(F)F, Nc1cccc(-n2c(=O)c3c(CCc4ccncc4)n[nH]c3c3cccnc32)c1 is higher in melting point: 244 °C for the first, 261 to 263 °C for the second.

Compared with CC(=Cc1ccc2ccccc2c1)c1ccc(C)cc1, Cc1ccc(C(=O)CCc2ccc(N3CCN(c4ccncc4)CC3)cc2)cc1 is higher in melting point: 109 °C for the first, 114 to 115 °C for the second.

First: COc1ccc2c(c1)Cc1nnc(S(C)=O)n1C=C2 (stereo not drawn)
Second: C=C1c2ccc(OC)cc2CC(=NO)c2ccccc21
The melting point of the first is higher: 176 to 177 °C for the first, 125 to 127 °C for the second.

Compared with N#Cc1cccc(C2=Nc3ccc(C#CC4=CCCCC4)cc3NC(=O)C2)c1, c1ccc2c(c1)nc(Nc1ccc3cn[nH]c3c1)c1nc(C3CCCC3)[nH]c12 is higher in melting point: 228 °C for the first, 235 to 236 °C for the second.

First: O=c1c2cc(Oc3ccc(Cl)cc3)ccc2nnn1Cc1cccnc1
Second: CCNC(=O)Nc1ccc(-c2ccc3nnn(Cc4ccc5ncccc5c4)c3n2)cc1
The melting point of the first is lower: 134 to 136 °C for the first, 193 to 196 °C for the second.

Compared with COc1ccccc1-c1c(CC(=O)O)n(C)c2ccc(Cl)cc12, CCC(C)N(C)C(=O)c1cc(-c2ccccc2F)c2sccc2c1 (stereo not drawn) is lower in melting point: 153 to 154 °C for the first, 89 °C for the second.

Compared with O=[N+]([O-])c1ccc(F)c(-c2ccc3ncccc3c2)c1F, O=C(c1ccc(Br)cc1)c1cccc([N+](=O)[O-])c1 is lower in melting point: 152 to 153 °C for the first, 104 to 105 °C for the second.

Compared with CNC1C(O)CC2C3CCc4cc(OC(=O)C(C)(C)C)ccc4C3CCC21C (stereo not drawn), CCCN1CC(NC(=O)C(C)(C)C)CC2c3cccc4[nH]c(Cl)c(c34)CC21 (stereo not drawn) is lower in melting point: 196 to 199 °C for the first, 146 to 147 °C for the second.

First: Nc1cc(CO)cc(S(N)(=O)=O)c1Oc1ccccc1
Second: O=Cc1c(O)cccc1OCc1cccc(C(=O)O)c1
The melting point of the first is lower: 170 °C for the first, 209 to 211 °C for the second.

Compared with COc1cc(Nc2c(C#N)cnc3cc(Cl)c([N+](=O)[O-])cc23)cc(OC)c1OC, COc1cc2ncc(C#N)c(Nc3ccc4[nH]ccc4c3)c2cc1OC is higher in melting point: 215 to 217 °C for the first, over 250 °C for the second.

First: Cc1ccc(C(=S)Oc2ccc(C(=O)O)cc2)cc1C12CC3CC(CC(C3)C1)C2
Second: C=CCOC(=O)c1ccc(N=C(OC)c2ccc(OC)c(C34CC5CC(CC(C5)C3)C4)c2)cc1
The melting point of the first is higher: 276 to 277 °C for the first, 85 to 87 °C for the second.

First: CNC(=S)C1=CC(CF)(CF)Oc2ccc(C(F)(F)F)cc21
Second: O=C(Nc1cccc(C(F)(F)F)c1)Nc1ccc(OCc2ccccc2)cc1O
The melting point of the first is lower: 145 to 147 °C for the first, 184 to 185 °C for the second.

First: CC(N)=CC(=O)c1cccs1
Second: Cc1ccc(OC2CCN(C(=O)C(=O)O)CC2)cc1
The melting point of the first is higher: 170 to 172 °C for the first, 109 to 112 °C for the second.

First: O=c1cc2c(n[nH]1)-c1ccc(O)cc1CC2
Second: CCC(=O)N1CCCC2=C1CCc1cc(Cl)ccc12
The melting point of the first is higher: 300 °C for the first, 115 to 117 °C for the second.

First: CCC(N1CCC(Oc2c(F)c(F)c(F)c(F)c2F)CC1)n1c(=O)[nH]c2ccccc21 (stereo not drawn)
Second: CC(C)(C)C(=O)OC(COc1cccc2[nH]ccc12)CN1CCC(COc2ccccc2)CC1 (stereo not drawn)
The melting point of the first is higher: 117 to 120 °C for the first, 103 to 105 °C for the second.

Compared with NS(=O)(=O)c1cnc(C2CC2=O)s1 (stereo not drawn), NS(=O)(=O)c1ccc(N2CN(C3CCCCC3)CC2=O)c(Cl)c1 is higher in melting point: 148 to 149 °C for the first, 188 to 190 °C for the second.

First: COC(CSc1nc(SCc2ccccc2)n[nH]1)OC
Second: CCN1CC2(CCN(Cc3ccccc3)CC2)OC1=O
The melting point of the first is lower: 73 to 76 °C for the first, 105 to 106 °C for the second.

First: COc1c(C(C)(C)C)cc(C=C2CCON(C)C2=O)cc1C(C)(C)C
Second: COc1cc(C(C)C)c2c(c1)S(=O)(=O)N(COC(=O)c1cccc(O)c1)C2=O
The melting point of the first is higher: 119 to 121 °C for the first, 71 to 73 °C for the second.

Compared with CN1C(=O)Cn2cc(C(=O)NCc3ccc(Cl)cc3)c(=O)c3cc(CN4CCOCC4)cc1c32, CCc1nc2c(cnn2CC)c(NC2CCOCC2)c1CNC(=O)c1cccc(C(=O)NCc2ccc(Cl)c(-c3cccc(CN4CC5CC4CN5)c3)c2)c1 (stereo not drawn) is lower in melting point: 213 to 214 °C for the first, 145 to 149 °C for the second.

First: N#CC1(CC(=O)O)CCCCC1
Second: O=C(SC1CCC1C(=O)N1CCC[C@H]1C(=O)O)c1ccccc1 (stereo partly drawn)
The melting point of the first is lower: 102 °C for the first, 123 to 124 °C for the second.

First: COc1ccccc1CC(=O)N1C[C@@H]2SCCC(c3ccccc3)(c3ccccc3)[C@@H]2C1 (racemic)
Second: CNC(=O)CSC(c1ccccc1)(c1ccccc1)c1ccccc1
The melting point of the first is lower: 172 °C for the first, 200 to 210 °C for the second.

First: COC(=O)C=CCC1C(=O)N2C(C(=O)OCc3ccc([N+](=O)[O-])cc3)=CCC12 (stereo not drawn)
Second: Cc1ccc(COC(=O)CCC2CCC(=O)N2)cc1 (stereo not drawn)
The melting point of the first is higher: 109 to 111 °C for the first, 71 to 72 °C for the second.

Compared with Nc1ncc(Cc2cccc(-c3ccccc3)c2)c(N)n1, CN(C)S(=O)(=O)c1cccc2c1Sc1ccc(OCc3ccccc3)cc1N2 is higher in melting point: 108 to 115 °C for the first, 192 to 194 °C for the second.

Compared with c1ccc(-c2ccc(COc3ccc4c(c3)CCC(CCn3ccnc3)C4)cc2)cc1 (stereo not drawn), COc1ccc(N2CCN(c3ccc(Nc4nc(-c5ccccc5)cs4)cc3)CC2)cc1 is higher in melting point: 145 to 146 °C for the first, 270 °C for the second.

First: CCOC(=O)C(=O)CC(=O)c1c(-c2ccccc2)cc2ccccn12
Second: CCCC[C@H](NC(=O)[C@H](CC(C)C)NC(=O)c1ccccc1OC)C(=O)CSCc1ccco1
The melting point of the first is higher: 100 to 102 °C for the first, 77 to 78 °C for the second.

Compared with O=C1Nc2ccc([N+](=O)[O-])cc2C1(Br)Br, CCc1cccc2c1C(=O)NS2(=O)=O is lower in melting point: 205 °C for the first, 183 to 185 °C for the second.

First: Clc1cc(Cl)c2oc(Cl)nc2c1
Second: Cc1cc(C#N)cc(C)c1Oc1cc(Cl)nc(Cl)n1
The melting point of the first is lower: 140 to 142 °C for the first, 208 to 210 °C for the second.

First: O=S(=O)(Cl)C=Cc1c(Cl)cccc1Cl
Second: OCc1cc(I)ccc1F
The melting point of the first is higher: 88 to 90 °C for the first, 42 °C for the second.

First: CCN(CC)CCn1c2ccccc2c(=NNC(N)=S)c2ccccc21
Second: C=CCN1C(=O)CN(c2ccc(Cc3ccccc3)cc2)C1=S
The melting point of the first is higher: 154 to 156 °C for the first, 132 °C for the second.

First: CC(CN1CCC(NC(=O)C2CC2)CC1)c1ccc(C(=O)c2ccccc2)cc1 (stereo not drawn)
Second: Nc1ccc(S(=O)(=O)Nc2ccn(C3CCCC3)c(=O)n2)cc1
The melting point of the first is lower: 159 to 160 °C for the first, 167 to 171 °C for the second.

First: CS(=O)(=O)N1CCC(CO)CC1
Second: CC(C)(C(C#N)=NO)S(C)(=O)=O
The melting point of the first is lower: 96 to 97 °C for the first, 139 to 141 °C for the second.

First: Cn1ccnc1Sc1ncc([N+](=O)[O-])n1C
Second: CCN1c2ncccc2C(N2CCCC2)=Nc2c(C)cc(C)nc21
The melting point of the first is lower: 123 to 124 °C for the first, 138 to 140 °C for the second.

Compared with COc1cc(C2C3=C(COC3=O)Nc3ccc4cc(C)[nH]c4c32)ccc1F (stereo not drawn), COc1cc2nc(N)nc(-c3ccccc3OC(F)(F)F)c2cc1OC is higher in melting point: 198 to 199 °C for the first, 235 to 237 °C for the second.

Compared with NC(CCNCCC(N)=NO)=NO, CC(=O)OCC(CCn1cnc2c(=O)[nH]c(N)nc21)COC(C)=O is higher in melting point: 180 °C for the first, 202 to 205 °C for the second.

Compared with CC(=O)OC1CSC(Oc2ccc(C)nc2[N+](=O)[O-])C(OC(C)=O)C1OC(C)=O (stereo not drawn), COc1cc(NC(C)=O)c(Cl)cc1C(=O)NN1CCN(CCC(C)C)CC1 is lower in melting point: 154 °C for the first, 128 to 130 °C for the second.

Compared with O=S1(=O)c2cccc3cccc(c23)N1CCN1CCN(c2ccc(O)cc2)CC1, CC(Cl)(Cl)C(NC(=O)c1ccc(Cl)cc1)NC(=NC#N)Nc1ccccc1F (stereo not drawn) is lower in melting point: 235 °C for the first, 216 to 217 °C for the second.

First: O=C1NCC(Cc2ccc(Br)cc2)O1 (stereo not drawn)
Second: CC1(C)SC(=O)C2OC=C(Br)C=C21 (stereo not drawn)
The melting point of the first is higher: 115 to 117 °C for the first, 63 to 72 °C for the second.

In the case of CCOCC(=O)C1CCC2C3CCC4CC(O)CCC4(C)C3C(=O)CC12C (stereo not drawn), the melting point is reported as 129 to 131 °C.
